Like-named read-outs stand apart in the source and are kept apart here. Each block holds one molecule with its values, some of them ahead of it.
Experiments:
[1] = tested on: Chrysanthemum variety "Regal Anne"; assay: Biological tests on chrysanthemums, height reduction and delay in flowering; format: in vivo; conditions: Soil drench, 250 ppm
chrysanthemums = assay: Trials under practical conditions on chrysanthemums; format: in vivo; conditions: independent of environmental conditions
From the text: This inhibition is independent of environmental conditions (e.g. it is not light-dependent). Depending on the applied rate, any desired degree of growth inhibition can be obtained.

chrysanthemum varieties = assay: Biological tests on chrysanthemums, summary over all varieties; format: in vivo; conditions: depending on the variety; in sufficient water to wet all the foliage
Description: (§1) In these tests chrysanthemum varieties were used which, on account of their strong growth, can only be reared as pot plants in combination with growth inhibitors.
(§2) About 25 days after potting (14 days after pinching) the plants were sprayed with aqueous preparations of the active substance of the Example and with Alar (known inhibitior for comparison). The growth in height of the plants was measured after three different periods (see table) and the growth inhibition is expressed in percent of the height measured on untreated plants (check = 0% reduction).
Depending on the variety the optimal growth inhibition (20 to 35%) was obtained with rates between 125-250 ppm of the active ingredient of the Example in sufficient water to wet all the foliage. With one variety a soil drench application was also performed.

[2] = tested on: Chrysanthemum variety "Aglow"; assay: Biological tests on chrysanthemums, height reduction and delay in flowering; format: in vivo; conditions: foliar spray
Description: as §1, §2
(§3) The delay in flowering was evaluated as follows: • ^* = 3-4 days delay DAA = Days after application • ^** = 4-7 days delay

[3] = tested on: Chrysanthemum variety "Regal Anne"; assay: as above; format: in vivo
Description: as §1, §2, §3

[4] = tested on: Chrysanthemum variety "Golden Anne"; assay: as above; format: in vivo; conditions: foliar spray
Description: as §1, §2, §3

[5] = tested on: Chrysanthemum variety "Wedgewood"; assay: as above; format: in vivo; conditions: foliar spray
Description: as §1, §2, §3

[6] = tested on: Soya plants of the variety "Hark"; assay: Inhibition of the vegetative growth and yield increase of soya plants; format: in vivo; conditions: for Inhibition rating: 5-trifoliate leaf stage, 4 weeks after application, linear rating 1-9; for % increase of pods A (number of pods) / % increase of pods B (weight of pods): versus untreated control plants
Description: Soya plants of the variety "Hark" were reared in earthenware pots and sprayed at the 5-trifoliate leaf stage with aqueous preparations of the active substance of the Example. The active substance concentrations in the spray broth were 500, 100 and 50 ppm respectively. The plant growth was evaluated 4 weeks after application in accordance with the following linear rating: • 1 = strong inhibition (no growth from the time of application) • 9 = no inhibition (growth as untreated controls)
The yield increase was evaluated at the sime time in percent increase of the pods when compared with the yield of pods obtained with untreated control plants.
Value A expresses the % increase in number of pods Value B express the % increase in weight of pods.

[7] = Stability against hydrolysis; format: physicochemical; conditions: all pH-ranges from 3 to 10
Description: (§4) 14,3 g (0,06 mole) of pyrrolidinoacetic acid 3-chloro-anilide are dissolved in 50 ml of ethyl acetate and then 9,4 g (0,078 mole) of allyl bromide are added. The reaction mixture is refluxed for 3 hours and the quaternised end product initially separates out as an oil which chrystallises after a brief time.After filtration with suction, washing with ethyl acetate and drying in vacuo at 50°C, 21,5 g (99,5% of theory) of the quaternary allyl pyrrolidino bromide of the formula [drawing 3] are obtained. Meting point: 144-147°C. The product is colourless, soluble in water (3,7%) and methanol (30%) and stable against hydrolysis in all pH-ranges from 3 to 10.

[8] = Solubility of the product; format: physicochemical
Description: as §4

stable against hydrolysis [7]: stable
solubility ([8]; methanol, organic solvent or mixture, read-out: soluble in methanol): 300 mg/mL
solubility ([8]; water, read-out: soluble in water): 37 mg/mL
Structure (SMILES): C=CC[N+]1(CC(=O)Nc2cccc(Cl)c2)CCCC1 [B]
delay in flowering [1]: ** (^** = 4-7 days delay)
height reduction against check ([1]; 11 DAA): 25%
inhibition of internode growth (chrysanthemums): uniform and reproducible inhibition of internode growth
rates giving the optimal growth inhibition (20 to 35%) (chrysanthemum varieties): 125-250 ppm
delay in flowering ([2]; 125 ppm): * (^* = 3-4 days delay)
height reduction against check ([2]; 125 ppm, 14 DAA): 0%
height reduction against check ([2]; 125 ppm, 32 DAA): 0%
height reduction against check ([2]; 125 ppm, 39 DAA): 10%
delay in flowering ([2]; 250 ppm): * (^* = 3-4 days delay)
height reduction against check ([2]; 250 ppm, 14 DAA): 10%
height reduction against check ([2]; 250 ppm, 32 DAA): 10%
height reduction against check ([2]; 250 ppm, 39 DAA): 25%
height reduction against check ([2]; 500 ppm, 14 DAA): 15%
height reduction against check ([2]; 500 ppm, 32 DAA): 25%
height reduction against check ([2]; 500 ppm, 39 DAA): 30%
height reduction against check ([3]; Soil drench, 250 ppm, 30 DAA): 50%
height reduction against check ([3]; Soil drench, 250 ppm, 55 DAA): 50%
delay in flowering ([3]; foliar spray, 125 ppm): * (^* = 3-4 days delay)
height reduction against check ([3]; foliar spray, 125 ppm, 11 DAA): 10%
height reduction against check ([3]; foliar spray, 125 ppm, 30 DAA): 25%
height reduction against check ([3]; foliar spray, 125 ppm, 55 DAA): 25%
delay in flowering ([3]; foliar spray, 250 ppm): * (^* = 3-4 days delay)
height reduction against check ([3]; foliar spray, 250 ppm, 11 DAA): 25%
height reduction against check ([3]; foliar spray, 250 ppm, 30 DAA): 50%
height reduction against check ([3]; foliar spray, 250 ppm, 55 DAA): 25%
delay in flowering ([3]; foliar spray, 500 ppm): * (^* = 3-4 days delay)
height reduction against check ([3]; foliar spray, 500 ppm, 11 DAA): 25%
height reduction against check ([3]; foliar spray, 500 ppm, 30 DAA): 60%
height reduction against check ([3]; foliar spray, 500 ppm, 55 DAA): 40%
delay in flowering ([3]; foliar spray, 1000 ppm): * (^* = 3-4 days delay)
height reduction against check ([3]; foliar spray, 1000 ppm, 11 DAA): 25%
height reduction against check ([3]; foliar spray, 1000 ppm, 30 DAA): 60%
height reduction against check ([3]; foliar spray, 1000 ppm, 55 DAA): 40%
delay in flowering ([3]; foliar spray, 2000 ppm): ** (^** = 4-7 days delay)
height reduction against check ([3]; foliar spray, 2000 ppm, 11 DAA): 40%
height reduction against check ([3]; foliar spray, 2000 ppm, 30 DAA): 75%
height reduction against check ([3]; foliar spray, 2000 ppm, 55 DAA): 50%
delay in flowering ([4]; 125 ppm): * (^* = 3-4 days delay)
height reduction against check ([4]; 125 ppm, 14 DAA): 10%
height reduction against check ([4]; 125 ppm, 32 DAA): 30%
height reduction against check ([4]; 125 ppm, 39 DAA): 20%
delay in flowering ([4]; 250 ppm): ** (^** = 4-7 days delay)
height reduction against check ([4]; 250 ppm, 14 DAA): 20%
height reduction against check ([4]; 250 ppm, 32 DAA): 35%
height reduction against check ([4]; 250 ppm, 39 DAA): 30%
delay in flowering ([4]; 500 ppm): ** (^** = 4-7 days delay)
height reduction against check ([4]; 500 ppm, 14 DAA): 30%
height reduction against check ([4]; 500 ppm, 32 DAA): 40%
height reduction against check ([4]; 500 ppm, 39 DAA): 35%
delay in flowering ([5]; 125 ppm): * (^* = 3-4 days delay)
height reduction against check ([5]; 125 ppm, 14 DAA): 10%
height reduction against check ([5]; 125 ppm, 32 DAA): 10%
height reduction against check ([5]; 125 ppm, 39 DAA): 20%
delay in flowering ([5]; 250 ppm): * (^* = 3-4 days delay)
height reduction against check ([5]; 250 ppm, 14 DAA): 15%
height reduction against check ([5]; 250 ppm, 32 DAA): 15%
height reduction against check ([5]; 250 ppm, 39 DAA): 25%
delay in flowering ([5]; 500 ppm): * (^* = 3-4 days delay)
height reduction against check ([5]; 500 ppm, 14 DAA): 15%
height reduction against check ([5]; 500 ppm, 32 DAA): 25%
height reduction against check ([5]; 500 ppm, 39 DAA): 25%
Inhibition rating ([6]; 50 ppm spray): 6
% increase of pods A (number of pods) ([6]; 50ppm): 45%
% increase of pods B (weight of pods) ([6]; 50ppm): 43%
Inhibition rating ([6]; 100 ppm spray): 7
% increase of pods A (number of pods) ([6]; 100 ppm): 22%
% increase of pods B (weight of pods) ([6]; 100 ppm): 11%
Inhibition rating ([6]; 500 ppm spray): 6
% increase of pods A (number of pods) ([6]; 500 ppm): 2%
% increase of pods B (weight of pods) ([6]; 500 ppm): 0%

Structure (SMILES): CN(C)NC(=O)CCC(=O)O [A, succinic acid mono-N-dimethylhydrazide, reference compound]
delay in flowering ([2]; 3400 ppm): * (^* = 3-4 days delay)
height reduction against check ([2]; 3400 ppm, 14 DAA): 20%
height reduction against check ([2]; 3400 ppm, 32 DAA): 30%
height reduction against check ([2]; 3400 ppm, 39 DAA): 25%
delay in flowering ([3]; foliar spray, 3400 ppm): * (^* = 3-4 days delay)
height reduction against check ([3]; foliar spray, 3400 ppm, 11 DAA): 40%
height reduction against check ([3]; foliar spray, 3400 ppm, 30 DAA): 40%
height reduction against check ([3]; foliar spray, 3400 ppm, 55 DAA): 25%
delay in flowering ([4]; 3400 ppm): * (^* = 3-4 days delay)
height reduction against check ([4]; 3400 ppm, 14 DAA): 30%
height reduction against check ([4]; 3400 ppm, 32 DAA): 30%
height reduction against check ([4]; 3400 ppm, 39 DAA): 25%
delay in flowering ([5]; 3400 ppm): * (^* = 3-4 days delay)
height reduction against check ([5]; 3400 ppm, 14 DAA): 30%
height reduction against check ([5]; 3400 ppm, 32 DAA): 30%
height reduction against check ([5]; 3400 ppm, 39 DAA): 25%
